Read-outs that look alike come from different tables or passages of the source.
Assays:
[1] = target: T1, YAP/TAZ-binding domain of human TEAD4 (217-434), deacylated (Homo sapiens, UniProt Q15561); test: Surface plasmon resonance; details: one-site binding fit of steady-state response versus concentration; read-out: Kd, affinity between TEAD and ATA
T1 construct: made in house
Description: The YAP/TAZ-binding domain of human TEAD4 (217–434) was deacylated and resuspended in 10 mM acetate buffer pH 5.0. TEAD was immobilized on a CM5 sensor chip (Cytiva, product, BR100530) using the amine coupling kit (Cytiva, product, BR10050) as per manufacturer’s guidelines. Various concentrations of ATA were dissolved in buffer containing 20 mM Tris pH 8.0, 150 mM NaCl, 1.5% DMSO and passed over the reference cell and the cell containing immobilized TEAD, and the resonance responses were recorded.

[2] = system: NIH3T3 cells expressing NRAS G12V; test: Soft agar colony growth assay, NRAS G12V; assay type: cell-based
Description: (§1) Soft agar colony growth assay was performed as previously described. The colonies were counted using Image-Pro Plus 7.0 software (Media Cybernetics). ATA cytotoxicity was assessed using the CyQUANT LDH Cytotoxicity Assay Kit (ThermoFisher) and was performed as per the manufacturer’s protocol.

TEAD4 = target: T2, TEAD4 (Homo sapiens, UniProt Q15561); test: ThermoFluor assay, TEAD; assay type: binding; details: protein 5 μM
T2 construct: ThermoFluor assays measuring the melting temperatures (Tm) of full-length TAZ or TEAD in the presence of ATA; strep (N, cleaved yes); made in house; host or cells: Escherichia coli BL21(DE3)pLysS
T2 sequence (Q15561 whole entry): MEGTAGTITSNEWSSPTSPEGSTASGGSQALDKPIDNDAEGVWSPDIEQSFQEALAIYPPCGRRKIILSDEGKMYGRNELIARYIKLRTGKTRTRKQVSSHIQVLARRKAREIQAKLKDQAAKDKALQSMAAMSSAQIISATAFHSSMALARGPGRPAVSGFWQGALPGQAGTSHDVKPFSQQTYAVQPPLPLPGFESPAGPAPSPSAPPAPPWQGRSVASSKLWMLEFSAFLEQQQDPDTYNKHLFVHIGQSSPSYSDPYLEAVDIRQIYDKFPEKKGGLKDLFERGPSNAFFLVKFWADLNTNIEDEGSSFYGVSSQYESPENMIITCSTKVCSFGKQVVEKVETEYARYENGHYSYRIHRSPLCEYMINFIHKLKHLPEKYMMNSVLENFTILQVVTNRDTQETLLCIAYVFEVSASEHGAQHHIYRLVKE
Description: To assess changes in protein stability, a dye-based thermal melting assay (ThermoFluor) was used. Purified protein (TAZ or TEAD4), ATA, and Protein Thermal Shift dye (ThermoFisher) were mixed in 96-well plates. The final concentration of the protein was 5 μM. The melting temperature was measured using LightCycler 480 (Roche). Each experiment was repeated at least twice.

HEK293 cells = test: LDH cytotoxicity assay, HEK293; assay type: cell-based; details: HEK293, concentrations used
Description: as §1
NIH3T3 and HEK293 cells were treated with the indicated concentrations of ATA and the cytotoxicity was evaluated by calculating the amount of intracellular LDH released into the media. LDH absorbance after complete cell lysis is considered as 100% cytotoxicity and the absorbance after ATA treatment was normalized accordingly. (TIF) Click here for additional data file.

[3] = target: T3, TAZ-TEAD complex (human TAZ (23-57) probe, human TEAD4 (217-434)) (Homo sapiens, UniProt Q15561); test: TAZ-TEAD fluorescence polarization assay; assay type: binding; details: TEAD4 350 nM, probe 25 nM
T3 construct: made in house
T3 sequence (Q15561 217-434, one chain of several): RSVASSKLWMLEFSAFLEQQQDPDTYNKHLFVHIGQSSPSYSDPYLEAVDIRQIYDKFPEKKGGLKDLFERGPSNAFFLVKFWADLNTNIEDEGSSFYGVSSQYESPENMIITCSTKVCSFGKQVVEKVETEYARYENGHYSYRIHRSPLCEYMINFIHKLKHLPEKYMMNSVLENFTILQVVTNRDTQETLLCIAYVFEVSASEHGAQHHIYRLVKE
Description: Human YAP (61–100), human TAZ (23–57) and mouse Vgll1 (26–51) peptide probes were used; all the probes had carboxyfluorescein labels. Human TEAD4 (217–434) was used in the assay at a concentration of 350 nM and the peptide probe concentration was 25 nM. Disruptors were titrated at concentrations ranging from 0–150 μM to the probe-TEAD complex, and the mixtures were incubated at 25°C for 20 min. Then, polarization measurements were taken using a Victor3 (PerkinElmer) plate reader.

T1 sequence (Q15561 217-434): as the sequence (Q15561 217-434, one chain of several) above

## O=C(O)C1=CC(=C(c2ccc(O)c(C(=O)O)c2)c2ccc(O)c(C(=O)O)c2)C=CC1=O [ATA, aurintricarboxylic acid]
[1]
  Kd: 3 µM
[2]
  NRAS G12V-induced soft agar growth: unaffected
TEAD4; TAZ or TEAD
  shift in Tm in the ThermoFluor assay (in words): increased the Tm
TEAD4; full-length TEAD
  melting temperature (Tm) of TEAD + ATA: 54.8 °C
HEK293 cells
  cytotoxicity, LDH release: did not show cytotoxicity
[3]; acylated TEAD, read-out: IC50, TAZ-TEAD FP assay, acylated TEAD
  IC50: 68 µM
[3]; deacylated TEAD, read-out: IC50, TAZ-TEAD FP assay, deacylated TEAD
  IC50: 72 µM
